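Dose response: 5 concentrations. Exposure: 48 h. Format: 96-well plates. Endpoint: linear interpolation; highest concentration if not reached. The concentration for full growth arrest is given as TGI.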
The compounds below were run on HS 578T breast (assay: growth of human tumour cells (NCI), 48 h).
In the case of `Cn1c(=O)c2[nH]c(CCCCC(=O)O)nc2n(C)c1=O`, the TGI is reported as > 100 µM.
With `Cc1cc(C)n(C2OC(CO)C(O)C(O)C2O)c(=S)c1C#N` (configuration not stated) the TGI was > 100 µM.
In the case of `Cc1ccc(-c2c3nc(c(-c4ccc(C)cc4)c4ccc([nH]4)c(-c4ccc(OCC5COC(C)(C)O5)cc4)c4nc(c(-c5ccc(C)cc5)c5ccc2[nH]5)C=C4)C=C3)cc1` (configuration not stated), the TGI is reported as > 100 µM.
In the case of `Cc1ccccc1N=Nc1ccc(N/N=C2/CCCNC2=O)c(C)c1`, the TGI is reported as > 100 µM.
For `CCn1c2ccccc2n2c(=O)c3c(c(C#N)c12)CCCC3`, the TGI was > 100 µM.
`CN(/N=C/c1ccc(OCc2cccc(COc3ccc(C=O)cc3)n2)cc1)c1cnn(-c2ccc(Cl)cc2Cl)c(=O)c1Cl` was tested, and the TGI was > 100 µM.
In the case of `CC12CCC([C@H](C(O)C3CCCCC3)C1=O)C2(C)C` (some centres not stated), the TGI is reported as > 100 µM.
For `C=C1CC[C@H](O)C(C)(C)[C@@H]1CC/C(C)=C/CC/C=C(\C)CC/C=C(\C)CCC=C(C)C`, the TGI was > 100 µM.
`c1ccc(CSP234N5CCN2CCN3CCN4CC5)c(CSP234N5CCN2CCN3CCN4CC5)c1` was tested, and the TGI was > 100 µM.
In the case of `COc1cc2c(cc1OC)CCc1cc(OC)c(OC)cc1CC2`, the TGI is reported as > 100 µM.
With `COc1ccc(N2C(=O)C3ON(C(C(N)=O)c4ccccc4)C(c4cc5ccccc5c5ccccc45)C3C2=O)cc1` (configuration not stated) the TGI was > 50 µM.
`O=c1[nH]c(Nc2nc3ccccc3[nH]2)nc2c1CCC2` was tested, and the TGI was 63.5 µM.
For `O=C1N[C@@H](c2c[nH]c3cc(Br)ccc23)C(=O)N[C@H]1c1c[nH]c2cc(Br)ccc12`, the TGI was > 100 µM.
With `COc1ccccc1N1CCN(CCCN2/C(=C(\O)c3ccccc3)C(=O)c3c(C)cc(C)nc3S2(=O)=O)CC1` the TGI was > 100 µM.
For `c1ccc2c(c1)nc1n2CNC1`, the TGI was > 100 µM.
In the case of `Cc1ccc(C)c(COCCOCn2ccc(N)nc2=O)c1`, the TGI is reported as > 100 µM.
With `CCOP(=O)(O)C1C(CO)OC(n2ccc(=O)[nH]c2=O)C1O` (configuration not stated) the TGI was > 100 µM.
In the case of `O=C1NCCCNCCCNCCCNC(=O)c2cccc1n2`, the TGI is reported as > 100 µM.
`CSC1=N/C(=C\c2ccccc2)C(=O)N1CN1CCCCC1` was tested, and the TGI was > 100 µM.
In the case of `COC(=O)C1=C(C(=O)OC)c2cc(OC)ccc2C(C(=S)N(C)C)S1` (configuration not stated), the TGI is reported as > 100 µM.

What follows are compounds tested on K-562 leukemia (assay: growth of human tumour cells (NCI), 48 h).
`Cc1ccc(N=Nc2c(C)c(C#N)c(=S)n(C3OC(CO)C(O)C(O)C3O)c2C)cc1` (configuration not stated) was tested, and the TGI was > 100 µM.
Work on `C=C(CC[C@@H](C)[C@H]1CC[C@@]2(C)C3=C(CC[C@]12C)[C@@]1(C)CC[C@H](O)[C@@H](C)C1CC3)C(C)C` (some centres not stated) yielded a TGI of 1.18 µM.
With `CC(=O)OCCOCn1cnc2c(Cl)nc(Cl)nc21` the TGI was 5.43 µM.
For `COc1ccc(N2C(=O)c3cc(C)cnc3S2(=O)=O)cc1`, the TGI was > 100 µM.
Compound `CC(C)=CC(=O)C[C@H]1C(=O)O[C@@H]2C[C@H]3C(C)=CC(=O)[C@@H](O)[C@]3(C)[C@H]3[C@@]4(O)OC[C@]32[C@@H]1[C@@H](C)[C@H]4O` has a TGI of 1.3 µM.
In the case of `Cc1ccccc1N=Nc1ccc(N/N=C2/CCCNC2=O)c(C)c1`, the TGI is reported as > 100 µM.
In the case of `CCn1c2ccccc2n2c(=O)c3c(c(C#N)c12)CCCC3`, the TGI is reported as > 100 µM.
With `CN(/N=C/c1ccc(OCc2cccc(COc3ccc(C=O)cc3)n2)cc1)c1cnn(-c2ccc(Cl)cc2Cl)c(=O)c1Cl` the TGI was > 100 µM.
In the case of `CC12CCC([C@H](C(O)C3CCCCC3)C1=O)C2(C)C` (some centres not stated), the TGI is reported as > 100 µM.
For `C=C1CC[C@H](O)C(C)(C)[C@@H]1CC/C(C)=C/CC/C=C(\C)CC/C=C(\C)CCC=C(C)C`, the TGI was > 100 µM.
In the case of `COc1cc2c(cc1OC)CCc1cc(OC)c(OC)cc1CC2`, the TGI is reported as > 100 µM.
In the case of `COc1ccc(N2C(=O)C3ON(C(C(N)=O)c4ccccc4)C(c4cc5ccccc5c5ccccc45)C3C2=O)cc1` (configuration not stated), the TGI is reported as > 50 µM.
In the case of `O=c1[nH]c(Nc2nc3ccccc3[nH]2)nc2c1CCC2`, the TGI is reported as > 100 µM.
`O=C1N[C@@H](c2c[nH]c3cc(Br)ccc23)C(=O)N[C@H]1c1c[nH]c2cc(Br)ccc12` was tested, and the TGI was > 100 µM.
For `COc1ccccc1N1CCN(CCCN2/C(=C(\O)c3ccccc3)C(=O)c3c(C)cc(C)nc3S2(=O)=O)CC1`, the TGI was > 100 µM.
With `c1ccc2c(c1)nc1n2CNC1` the TGI was > 100 µM.
In the case of `Cc1ccc(C)c(COCCOCn2ccc(N)nc2=O)c1`, the TGI is reported as > 100 µM.
`CCOP(=O)(O)C1C(CO)OC(n2ccc(=O)[nH]c2=O)C1O` (configuration not stated) was tested, and the TGI was > 100 µM.
`O=C1NCCCNCCCNCCCNC(=O)c2cccc1n2` was tested, and the TGI was > 100 µM.
In the case of `CSC1=N/C(=C\c2ccccc2)C(=O)N1CN1CCCCC1`, the TGI is reported as > 100 µM.
For `COC(=O)C1=C(C(=O)OC)c2cc(OC)ccc2C(C(=S)N(C)C)S1` (configuration not stated), the TGI was > 100 µM.

The compounds below were run on KM12 colon (assay: growth of human tumour cells (NCI), 48 h).
For `Cc1ccc(N=Nc2c(C)c(C#N)c(=S)n(C3OC(CO)C(O)C(O)C3O)c2C)cc1` (configuration not stated), the TGI was > 100 µM.
Compound `C=C(CC[C@@H](C)[C@H]1CC[C@@]2(C)C3=C(CC[C@]12C)[C@@]1(C)CC[C@H](O)[C@@H](C)C1CC3)C(C)C` (some centres not stated) has a TGI of 2.76 µM.
For `CC(=O)OCCOCn1cnc2c(Cl)nc(Cl)nc21`, the TGI was 44.1 µM.
With `COc1ccc(N2C(=O)c3cc(C)cnc3S2(=O)=O)cc1` the TGI was > 100 µM.
Work on `CC(C)=CC(=O)C[C@H]1C(=O)O[C@@H]2C[C@H]3C(C)=CC(=O)[C@@H](O)[C@]3(C)[C@H]3[C@@]4(O)OC[C@]32[C@@H]1[C@@H](C)[C@H]4O` yielded a TGI of 12.8 µM.
In the case of `Cn1c(=O)c2[nH]c(CCCCC(=O)O)nc2n(C)c1=O`, the TGI is reported as > 100 µM.
`Cc1cc(C)n(C2OC(CO)C(O)C(O)C2O)c(=S)c1C#N` (configuration not stated) was tested, and the TGI was > 100 µM.
`Cc1ccc(-c2c3nc(c(-c4ccc(C)cc4)c4ccc([nH]4)c(-c4ccc(OCC5COC(C)(C)O5)cc4)c4nc(c(-c5ccc(C)cc5)c5ccc2[nH]5)C=C4)C=C3)cc1` (configuration not stated) was tested, and the TGI was > 31.6 µM.
In the case of `Cc1ccccc1N=Nc1ccc(N/N=C2/CCCNC2=O)c(C)c1`, the TGI is reported as > 100 µM.
With `CCn1c2ccccc2n2c(=O)c3c(c(C#N)c12)CCCC3` the TGI was > 100 µM.
In the case of `CN(/N=C/c1ccc(OCc2cccc(COc3ccc(C=O)cc3)n2)cc1)c1cnn(-c2ccc(Cl)cc2Cl)c(=O)c1Cl`, the TGI is reported as > 100 µM.
In the case of `CC12CCC([C@H](C(O)C3CCCCC3)C1=O)C2(C)C` (some centres not stated), the TGI is reported as > 100 µM.
`C=C1CC[C@H](O)C(C)(C)[C@@H]1CC/C(C)=C/CC/C=C(\C)CC/C=C(\C)CCC=C(C)C` was tested, and the TGI was > 100 µM.
In the case of `c1ccc(CSP234N5CCN2CCN3CCN4CC5)c(CSP234N5CCN2CCN3CCN4CC5)c1`, the TGI is reported as > 100 µM.
With `COc1cc2c(cc1OC)CCc1cc(OC)c(OC)cc1CC2` the TGI was > 100 µM.
In the case of `COc1ccc(N2C(=O)C3ON(C(C(N)=O)c4ccccc4)C(c4cc5ccccc5c5ccccc45)C3C2=O)cc1` (configuration not stated), the TGI is reported as > 50 µM.

Source: PubChem BioAssay (NCI)
